Laboratory results published in ChEMBL document CHEMBL4152336, “Optimization of the first small-molecule relaxin/insulin-like family peptide receptor (RXFP1) agonists: Activation results in an antifibrotic gene expression profile” (Eur J Med Chem, 2018).
In brackets after ≈: the same amount, converted by molar mass. Activity calls are given as the source filed them. The rule behind the calls is not given here.

Experiments:
Mus musculus [1] = assay: Toxicity in C57/BL6 mouse assessed as body weight at 300 mg/kg, po treated for 5 days measured at day 9 post last dose (reference value: 20.7 +/- 2.9 g); format: organism-based; conditions: in vivo, 120 h
[2] = Drug level in C57/BL6 mouse heart at 3 mg/kg, iv after 0.08 hrs; format: ADME, organism-based; conditions: in vivo
Mus musculus [3] = assay: Toxicity in C57/BL6 mouse assessed as body weight at 90 mg/kg, po treated for 5 days measured at day 2 post last dose (reference value: 19.8 +/- 2.3 g); format: organism-based; conditions: in vivo, 120 h
Mus musculus [4] = assay: Toxicity in C57/BL6 mouse assessed as body weight at 3000 mg/kg, po treated for 5 days measured at day 4 post last dose (reference value: 20.1 +/- 2.8 g); format: organism-based; conditions: in vivo, 120 h
[5] = Drug level in C57/BL6 mouse heart at 30 mg/kg, po after 1 hr; format: ADME, organism-based; conditions: in vivo
Mus musculus [6] = assay: Toxicity in C57/BL6 mouse assessed as body weight at 300 mg/kg, po treated for 5 days measured at day 7 post last dose (reference value: 20.6 +/- 2.9 g); format: organism-based; conditions: in vivo, 120 h
Homo sapiens [7] = species: Homo sapiens; assay: Down regulation of ACTA2 gene expression in human HSC at 5 uM after 24 to 72 hrs by RT-qPCR analysis; format: functional
Mus musculus [8] = assay: Toxicity in C57/BL6 mouse assessed as body weight at 300 mg/kg, po treated for 5 days measured at day 3 post last dose (reference value: 19.8 +/- 2.5 g); format: organism-based; conditions: in vivo, 120 h
Mus musculus [9] = assay: Toxicity in C57/BL6 mouse assessed as body weight at 90 mg/kg, po treated for 5 days measured at day 9 post last dose (reference value: 20.7 +/- 2.9 g); format: organism-based; conditions: in vivo, 120 h
Mus musculus [10] = assay: Toxicity in C57/BL6 mouse assessed as body weight at 300 mg/kg, po treated for 5 days measured at day 6 post last dose (reference value: 20.6 +/- 2.6 g); format: organism-based; conditions: in vivo, 120 h
Mus musculus [11] = assay: Toxicity in C57/BL6 mouse assessed as body weight at 300 mg/kg, po treated for 5 days measured at day 10 post last dose (reference value: 20.7 +/- 2.6 g); format: organism-based; conditions: in vivo, 120 h
Mus musculus [12] = assay: Toxicity in C57/BL6 mouse assessed as body weight at 90 mg/kg, po treated for 5 days measured at day 5 post last dose (reference value: 20.3 +/- 2.8 g); format: organism-based; conditions: in vivo, 120 h
Mus musculus [13] = assay: Toxicity in C57/BL6 mouse assessed as body weight at 3000 mg/kg, po treated for 5 days measured at day 2 post last dose (reference value: 19.8 +/- 2.3 g); format: organism-based; conditions: in vivo, 120 h
Mus musculus [14] = assay: Toxicity in C57/BL6 mouse assessed as body weight at 300 mg/kg, po treated for 5 days measured at day 5 post last dose (reference value: 20.3 +/- 2.8 g); format: organism-based; conditions: in vivo, 120 h
[15] = Drug level in C57/BL6 mouse heart at 3 mg/kg, iv after 7 hrs; format: ADME, organism-based; conditions: in vivo
Homo sapiens [16] = species: Homo sapiens; assay: Down regulation of TGFB1 gene expression in human HSC at 5 uM after 24 to 72 hrs by RT-qPCR analysis; format: functional
Homo sapiens [17] = species: Homo sapiens; assay: Down regulation of COL1A1 gene expression in human HSC at 5 uM after 24 to 72 hrs by RT-qPCR analysis; format: functional
[18] = Drug level in C57/BL6 mouse heart at 30 mg/kg, po after 0.17 hrs; format: ADME, organism-based; conditions: in vivo
[19] = Drug level in C57/BL6 mouse heart at 3 mg/kg, iv after 2 hrs; format: ADME, organism-based; conditions: in vivo
[20] = Drug level in C57/BL6 mouse heart at 30 mg/kg, po after 7 hrs; format: ADME, organism-based; conditions: in vivo
Mus musculus [21] = assay: Toxicity in C57/BL6 mouse assessed as body weight at 300 mg/kg, po treated for 5 days measured at day 4 post last dose (reference value: 20.1 +/- 2.8 g); format: organism-based; conditions: in vivo, 120 h
[22] = Drug level in C57/BL6 mouse heart at 30 mg/kg, po after 5 hrs; format: ADME, organism-based; conditions: in vivo
[23] = Drug level in C57/BL6 mouse heart at 30 mg/kg, po after 2 hrs; format: ADME, organism-based; conditions: in vivo
[24] = Drug level in C57/BL6 mouse heart at 30 mg/kg, po after 1.5 hr; format: ADME, organism-based; conditions: in vivo
Homo sapiens [25] = species: Homo sapiens; assay: Upregulation of MMP1 gene expression in human HSC at 5 uM after 24 to 72 hrs by RT-qPCR analysis; format: functional
Mus musculus [26] = assay: Toxicity in C57/BL6 mouse assessed as body weight at 3000 mg/kg, po treated for 5 days measured at day 9 post last dose (reference value: 20.7 +/- 2.9 g); format: organism-based; conditions: in vivo, 120 h
Homo sapiens [27] = species: Homo sapiens; assay: Upregulation of PPARGC1A gene expression in human HSC at 5 uM after 24 to 72 hrs by RT-qPCR analysis; format: functional
[28] = Drug level in C57/BL6 mouse heart at 3 mg/kg, iv after 1 hr; format: ADME, organism-based; conditions: in vivo
Mus musculus [29] = assay: Toxicity in C57/BL6 mouse assessed as body weight at 90 mg/kg, po treated for 5 days measured at day 6 post last dose (reference value: 20.6 +/- 2.6 g); format: organism-based; conditions: in vivo, 120 h
Mus musculus [30] = assay: Toxicity in C57/BL6 mouse assessed as body weight at 90 mg/kg, po treated for 5 days measured at day 7 post last dose (reference value: 20.6 +/- 2.9 g); format: organism-based; conditions: in vivo, 120 h
Mus musculus [31] = assay: Toxicity in C57/BL6 mouse assessed as body weight at 90 mg/kg, po treated for 5 days measured at day 4 post last dose (reference value: 20.1 +/- 2.8 g); format: organism-based; conditions: in vivo, 120 h
[32] = Drug level in C57/BL6 mouse heart at 3 mg/kg, iv after 3 hrs; format: ADME, organism-based; conditions: in vivo
Mus musculus [33] = assay: Toxicity in C57/BL6 mouse assessed as body weight at 3000 mg/kg, po treated for 5 days measured at day 7 post last dose (reference value: 20.6 +/- 2.9 g); format: organism-based; conditions: in vivo, 120 h
Mus musculus [34] = assay: Toxicity in C57/BL6 mouse assessed as body weight at 3000 mg/kg, po treated for 5 days measured at day 3 post last dose (reference value: 19.8 +/- 2.5 g); format: organism-based; conditions: in vivo, 120 h
[35] = Aqueous kinetic solubility of the compound in PBS by shake-flask method; format: physicochemical; conditions: PBS; read-out: Kinetic_solubility
[36] = Drug level in C57/BL6 mouse heart at 30 mg/kg, po after 3 hrs; format: ADME, organism-based; conditions: in vivo
Mus musculus [37] = assay: Toxicity in C57/BL6 mouse assessed as body weight at 3000 mg/kg, po treated for 5 days measured at day 10 post last dose (reference value: 20.7 +/- 2.6 g); format: organism-based; conditions: in vivo, 120 h
Mus musculus [38] = assay: Toxicity in C57/BL6 mouse assessed as body weight at 300 mg/kg, po treated for 5 days measured at day 8 post last dose (reference value: 20.6 +/- 2.8 g); format: organism-based; conditions: in vivo, 120 h
Mus musculus [39] = assay: Toxicity in C57/BL6 mouse assessed as mouse death at 90 to 3000 mg/kg, po treated for 5 days measured at day 5 post last dose; format: organism-based; conditions: in vivo, 120 h
Mus musculus [40] = assay: Toxicity in C57/BL6 mouse assessed as abnormal behavior at 3 to 30 mg/kg, iv; format: organism-based; conditions: in vivo
Mus musculus [41] = assay: Toxicity in C57/BL6 mouse assessed as body weight at 3000 mg/kg, po treated for 5 days measured at day 8 post last dose (reference value: 20.6 +/- 2.8 g); format: organism-based; conditions: in vivo, 120 h

SMILES: CC(C)Oc1ccccc1C(=O)Nc1ccccc1C(=O)Nc1cccc(S(=O)(=O)C(F)(F)F)c1
- Activity (Mus musculus [1]): 21 g
- Drug uptake [2]: 4.12 µmol/kg
- Activity (Mus musculus [3]): 19.9 g
- Activity (Mus musculus [4]): 20.7 g
- Drug uptake [5]: 1.041 µmol/kg
- Activity (Mus musculus [6]): 20.9 g
- Activity (Homo sapiens [7]): Active
- Activity (Mus musculus [8]): 20.4 g
- Activity (Mus musculus [9]): 20.8 g
- Activity (Mus musculus [10]): 20.8 g
- Activity (Mus musculus [11]): 21.3 g
- Activity (Mus musculus [12]): 20 g
- Activity (Mus musculus [13]): 20.6 g
- Activity (Mus musculus [14]): 20.6 g
- Drug uptake [15]: 0.394 µmol/kg
- Activity (Homo sapiens [16]): Active
- Activity (Homo sapiens [17]): Active
- Drug uptake [18]: 0.926 µmol/kg
- Drug uptake [19]: 1.206 µmol/kg
- Drug uptake [20]: 0.067 µmol/kg
- Activity (Mus musculus [21]): 20.4 g
- Drug uptake [22]: 0.256 µmol/kg
- Drug uptake [23]: 1.016 µmol/kg
- Drug uptake [24]: 2.026 µmol/kg
- Activity (Homo sapiens [25]): Active
- Activity (Mus musculus [26]): 21.2 g
- Activity (Homo sapiens [27]): Active
- Drug uptake [28]: 1.395 µmol/kg
- Activity (Mus musculus [29]): 20.4 g
- Activity (Mus musculus [30]): 20.4 g
- Activity (Mus musculus [31]): 20 g
- Drug uptake [32]: 0.6 µmol/kg
- Activity (Mus musculus [33]): 21.2 g
- Activity (Mus musculus [34]): 20.6 g
- solubility kinetic [35]: 7 µM (≈ 3.55 µg/mL)
- Drug uptake [36]: 0.995 µmol/kg
- Activity (Mus musculus [37]): 21.3 g
- Activity (Mus musculus [38]): 21.2 g
- Activity (Mus musculus [39]): Non-Toxic
- Activity (Mus musculus [40]): Non-Toxic
- Activity (Mus musculus [41]): 21.1 g
